Substitutions are numbered along the chain they refer to. Like-named read-outs stand apart in the source and are kept apart here.
Key:
[1] = biological target: T1, OCT1 Phe244Ala variant (Homo sapiens, UniProt O15245, F244A); assay: Uptake screening (transport ratio over empty vector), HEK293 cells overexpressing OCT1 Phe244Ala variant; assay type: cell-based; set-up: expressed in transfected cells;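 also: stably transfected HEK293 cells, intracellular substrate quantified by HPLC-tandem mass spectrometry in cell lysates, uptake in HBSS+ buffer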
T1 sequence (O15245 1-554 F244A): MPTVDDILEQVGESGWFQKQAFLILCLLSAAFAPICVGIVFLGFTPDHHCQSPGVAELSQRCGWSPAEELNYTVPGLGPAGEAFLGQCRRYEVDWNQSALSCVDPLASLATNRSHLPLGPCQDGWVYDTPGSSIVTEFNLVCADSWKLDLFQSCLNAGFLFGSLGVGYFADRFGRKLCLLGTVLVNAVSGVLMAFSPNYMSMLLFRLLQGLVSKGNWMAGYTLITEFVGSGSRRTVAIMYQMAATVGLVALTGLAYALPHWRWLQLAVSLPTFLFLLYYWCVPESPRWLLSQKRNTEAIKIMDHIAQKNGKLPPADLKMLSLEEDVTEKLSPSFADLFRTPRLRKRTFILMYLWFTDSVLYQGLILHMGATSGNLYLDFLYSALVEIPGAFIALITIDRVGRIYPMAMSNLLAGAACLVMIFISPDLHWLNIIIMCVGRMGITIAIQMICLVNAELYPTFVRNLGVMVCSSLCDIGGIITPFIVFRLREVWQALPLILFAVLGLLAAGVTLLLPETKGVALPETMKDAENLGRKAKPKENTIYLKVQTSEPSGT

[2] = biological target: T2, OCT1 WT (Homo sapiens, UniProt O15245); assay: Concentration-dependent uptake kinetics, HEK293 cells overexpressing OCT1 WT; conditions: for Clint: OCT1 WT, ratio of vmax over Km
T2 sequence (O15245 1-554): T1 sequence (O15245 1-554 F244A) with A244F

[3] = biological target: T2, OCT1 WT; assay: Uptake screening (transport ratio over empty vector), HEK293 cells overexpressing OCT1 WT; assay type: cell-based; set-up: expressed in transfected cells;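 also: intracellular substrate levels quantified by HPLC–tandem mass spectrometry after uptake in HBSS+ buffer at 37 °C, stable Flp-In HEK293 lines, fold change versus empty vector–transfected cells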
[4] = biological target: T1, OCT1 Phe244Ala variant; assay: Concentration-dependent uptake kinetics, HEK293 cells overexpressing OCT1 Phe244Ala; conditions: for Clint: OCT1 Phe244Ala, ratio of vmax over Km; for Km, Phe244Ala compared to WT / Maximum transport capacity (vmax), Phe244Ala compared to WT: uptake kinetics, in words;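 as to all read-outs here: cells exposed to rising substrate concentrations in buffer, intracellular drug measured by HPLC-tandem mass spectrometry, quantified against a standard curve, uptake referenced to empty vector-transfected HEK293 controls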
[5] = Phe244Ala uptake relative to WT
[6] = uptake ratio over empty vector, HEK293 cells overexpressing OCT1 Phe244Ala
[7] = uptake ratio over empty vector, HEK293 cells overexpressing OCT1 WT
[8] = Phe244Ala uptake relative to OCT1 WT

CC(C)(C)NCC(O)COc1cccc2c1CCC(=O)N2 (stereo not drawn) [Carteolol]
Fold increased uptake rate by Phe244Ala compared to WT ([1]; 2.5 μM substrate, 2 min): 3.2 fold | relative_Phe244Ala_uptake_in% [1, 5]: 315.540% | Mean_transport_ratio_Phe244Ala [1, 6]: 8.502 | Clint [2]: 1.01 ± 1.41 ml × g Protein^−1 × min^−1 | Mean_transport_ratio_WT [3, 7]: 3.378 | Clint [4]: 7.82 ± 8.13 ml × g Protein^−1 × min^−1

CC(CCc1ccc(O)cc1)NCCc1ccc(O)c(O)c1 (stereo not drawn) [Dobutamine]
relative_Phe244Ala_uptake_in% [1, 5]: 249.567% | Mean_transport_ratio_Phe244Ala [1, 6]: 15.606 | Clint [2]: 3.03 ± 6.16 ml × g Protein^−1 × min^−1 | Mean_transport_ratio_WT [3, 7]: 6.852 | Clint [4]: 7.88 ± 6.38 ml × g Protein^−1 × min^−1 | Km, Phe244Ala compared to WT [4]: lower Km values

NC(N)=Nc1nc(CSCCC(N)=NS(N)(=O)=O)cs1 [Famotidine]
Clint [2]: 45.8 ± 45.7 ml × g Protein^−1 × min^−1 | Clint [4]: 12.1 ± 19.8 ml × g Protein^−1 × min^−1 | Km, Phe244Ala compared to WT [4]: higher Km values | Maximum transport capacity (vmax), Phe244Ala compared to WT [4]: more similar maximum transport capacities

CC(=O)OC(C)C[N+](C)(C)C (stereo not drawn) [Methacholine, Acetyl-beta-methylcholine]
Transport activity of Phe244Ala in % of WT activity ([1]; 2.5 μM substrate, 2 min, Phe244Ala uptake relative to WT): ~10% | Clint [2]: 14.1 ± 15.2 ml × g Protein^−1 × min^−1 | Clint [4]: 3.03 ± 8.29 ml × g Protein^−1 × min^−1 | Km, Phe244Ala compared to WT [4]: higher Km values | Maximum transport capacity (vmax), Phe244Ala compared to WT [4]: more similar maximum transport capacities

CC(C)[N+](C)(CCOC(=O)C1c2ccccc2Oc2ccccc21)C(C)C [Propanthelin, Propantheline]
Clint [2]: 224 ± 251 ml × g Protein^−1 × min^−1 | Clint [4]: 205 ± 124 ml × g Protein^−1 × min^−1

CC(NCCc1ccc(O)cc1)C(O)c1ccc(O)cc1 (stereo not drawn) [Ritodrine]
relative_Phe244Ala_uptake_in% [1, 8]: 143.135% | Mean_transport_ratio_Phe244Ala [1, 6]: 12.33 | Mean_transport_ratio_WT [3, 7]: 8.916

CN(C)CCc1c[nH]c2ccc(Cn3cncn3)cc12 [Rizatriptan]
relative_Phe244Ala_uptake_in% [1, 8]: 26.058% | Mean_transport_ratio_Phe244Ala [1, 6]: 2.714 | Mean_transport_ratio_WT [3, 7]: 7.577

CNCc1ccc(-c2[nH]c3cc(F)cc4c3c2CCNC4=O)cc1 [Rucaparib]
relative_Phe244Ala_uptake_in% [1, 8]: 161.437% | Mean_transport_ratio_Phe244Ala [1, 6]: 2.644 | Mean_transport_ratio_WT [3, 7]: 2.018

CC(C)NC[C@H](O)COc1ccc(O)cc1 [S-Prenalterol]
relative_Phe244Ala_uptake_in% [1, 8]: 112.541% | Mean_transport_ratio_Phe244Ala [1, 6]: 4.341 | Mean_transport_ratio_WT [3, 7]: 3.969

CC(C)(C)NCC(O)c1ccc(O)c(CO)c1 (stereo not drawn) [Salbutamol]
relative_Phe244Ala_uptake_in% [1, 8]: 142.307% | Mean_transport_ratio_Phe244Ala [1, 6]: 12.079 | Mean_transport_ratio_WT [3, 7]: 8.785

COc1cc2c(cc1OC)[C@H](C)NCC2 [Salsolidine]
relative_Phe244Ala_uptake_in% [1, 8]: 32.677% | Mean_transport_ratio_Phe244Ala [1, 6]: 1.211 | Mean_transport_ratio_WT [3, 7]: 1.647

CCN(CC)CCNC(=O)c1ccc(NS(C)(=O)=O)cc1 [Sematilid]
relative_Phe244Ala_uptake_in% [1, 8]: 52.483% | Mean_transport_ratio_Phe244Ala [1, 6]: 2.352 | Mean_transport_ratio_WT [3, 7]: 3.577

CC(C)NCC(O)c1ccc(NS(C)(=O)=O)cc1 (stereo not drawn) [Sotalol]
relative_Phe244Ala_uptake_in% [1, 8]: 43.617% | Mean_transport_ratio_Phe244Ala [1, 6]: 2.831 | Mean_transport_ratio_WT [3, 7]: 5.197

CCN1CCCC1CNC(=O)c1cc(S(N)(=O)=O)ccc1OC (stereo not drawn) [Sulpiride]
vmax [2]: 237 ± 49.7 pmol × mg protein^−1 × min^−1 | Clint [2]: 2.65 ± 3.09 ml × g Protein^−1 × min^−1 | vmax [4]: 418 ± 65 pmol × mg protein^−1 × min^−1 | Clint [4]: 4.01 ± 3.27 ml × g Protein^−1 × min^−1

CNS(=O)(=O)Cc1ccc2[nH]cc(CCN(C)C)c2c1 [Sumatriptan]
relative_Phe244Ala_uptake_in% [1, 8]: 115.380% | Mean_transport_ratio_Phe244Ala [1, 6]: 37.118 | Mean_transport_ratio_WT [3, 7]: 32.304

CNCC(O)c1ccc(O)cc1 (stereo not drawn) [Synephrine]
relative_Phe244Ala_uptake_in% [1, 8]: 47.706% | Mean_transport_ratio_Phe244Ala [1, 6]: 4.516 | Mean_transport_ratio_WT [3, 7]: 8.37

Cc1ncc(C[n+]2csc(CCO)c2C)c(N)n1 [Thiamine]
relative_Phe244Ala_uptake_in% [1, 8]: 21.749% | Mean_transport_ratio_Phe244Ala [1, 6]: 9.954 | Clint [2]: 7.51 ± 8.28 ml × g Protein^−1 × min^−1 | Mean_transport_ratio_WT [3, 7]: 42.169 | Clint [4]: 2.70 ± 5.44 ml × g Protein^−1 × min^−1 | Maximum transport capacity (vmax), Phe244Ala compared to WT [4]: reduced transport capacity

C[N+]1(C)[C@@H]2CC(OC(=O)C(O)(c3cccs3)c3cccs3)C[C@H]1[C@@H]1O[C@@H]12 (stereo partly drawn) [Thiotropium]
Mean_transport_ratio_Phe244Ala [1]: 35.339 | relative_Phe244Ala_uptake_in% [1]: 101.472% | Mean_transport_ratio_WT [3]: 34.841

CN1[C@@H]2CC[C@H]1C[C@@H](OC(=O)c1c[nH]c3ccccc13)C2 [Tropisetron]
relative_Phe244Ala_uptake_in% [1, 8]: 47.074% | Mean_transport_ratio_Phe244Ala [1, 6]: 1.568 | Mean_transport_ratio_WT [3, 7]: 2.206

O=C(O[C@H]1C[C@H]2CC[C@@H](C1)[N+]21CCCC1)C(O)(c1ccccc1)c1ccccc1 [Trospium]
relative_Phe244Ala_uptake_in% [1, 8]: 106.940% | Mean_transport_ratio_Phe244Ala [1, 6]: 29.384 | Mean_transport_ratio_WT [3, 7]: 27.542

NCCc1c[nH]c2ccccc12 [Tryptamin]
relative_Phe244Ala_uptake_in% [1, 8]: 9.229% | Mean_transport_ratio_Phe244Ala [1, 6]: 1.149 | Mean_transport_ratio_WT [3, 7]: 2.619

OC(c1ccccc1)(c1ccccc1)C12CC[N+](CCOCc3ccccc3)(CC1)CC2 [Umeclidinium]
relative_Phe244Ala_uptake_in% [1, 8]: 127.145% | Mean_transport_ratio_Phe244Ala [1, 6]: 7.391 | Mean_transport_ratio_WT [3, 7]: 6.027

C=CCN1CCCC1CNC(=O)c1cc(S(N)(=O)=O)cc(OC)c1OC (stereo not drawn) [Veralipride]
relative_Phe244Ala_uptake_in% [1, 8]: 478.904% | Mean_transport_ratio_Phe244Ala [1, 6]: 5.345 | Mean_transport_ratio_WT [3, 7]: 1.907

Cc1cc(C(C)(C)C)cc(C)c1CC1=NCCN1 [Xylometazoline]
relative_Phe244Ala_uptake_in% [1, 8]: 242.447% | Mean_transport_ratio_Phe244Ala [1, 6]: 4.046 | Mean_transport_ratio_WT [3, 7]: 2.256

COCCn1c2c([n+](Cc3cnccn3)c1C)C(=O)c1ccccc1C2=O [YM155]
relative_Phe244Ala_uptake_in% [1, 8]: 88.784% | Mean_transport_ratio_Phe244Ala [1, 6]: 16.385 | Mean_transport_ratio_WT [3, 7]: 18.329

CN(C)CCc1c[nH]c2ccc(C[C@H]3COC(=O)N3)cc12 [Zolmitriptan]
Clint [2]: 21.6 ± 26.4 ml × g Protein^−1 × min^−1 | Clint [4]: 13.3 ± 17.5 ml × g Protein^−1 × min^−1 | Maximum transport capacity (vmax), Phe244Ala compared to WT [4]: reduced transport capacity

NCCc1cccc(O)c1 [m-Tyramine]
relative_Phe244Ala_uptake_in% [1, 8]: 13.730% | Mean_transport_ratio_Phe244Ala [1, 6]: 1.687 | Mean_transport_ratio_WT [3, 7]: 6.001

NCCc1ccc(O)cc1 [p-Tyramine]
relative_Phe244Ala_uptake_in% [1, 8]: 11.429% | Mean_transport_ratio_Phe244Ala [1, 6]: 1.435 | Mean_transport_ratio_WT [3, 7]: 4.809

(-)-Sparteine
Mean_transport_ratio_Phe244Ala [1]: 4.411 | relative_Phe244Ala_uptake_in% [1]: 84.604% | Mean_transport_ratio_WT [3]: 5.032

From PMC11602988 (The Journal of Biological Chemistry, 2024)
